The source of these data is patent publication US6818663B2, “Diaminothiazoles” (Hoffmann-La Roches, priority 2002, dated 2004).

The target in one assay is human cyclin E-CDK2 (Homo sapiens, UniProt P24941). The experiment in a line: FlashPlate kinase assay, cyclin E-CDK2, Rb substrate. The assay is classed as biochemical. Conditions: recombinant cyclin E-CDK2, Rb phosphorylation, 1 μM ATP. In a few lines:
(§1)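 Recombinant human cyclin–CDK complexes, co-expressed in insect cells, phosphorylated His-tagged Rb (aa 386-928) coated on FlashPlates at 10 μg/ml. Reaction used 1 μM ATP plus 4 nM ^33P-ATP and 20 mM MgCl2 for 30 min at room temperature. % inhibition came from scintillation counts against no-enzyme and no-compound wells, and IC50 was the concentration halving radiolabel incorporation.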

Another assay addresses human cyclin B-CDK1 (Homo sapiens, UniProt P06493). The experiment in a line: FlashPlate kinase assay, cyclin B-CDK1, Rb substrate. The class given is biochemical. The conditions noted are these: recombinant cyclin B-CDK1, Rb phosphorylation, 1 μM ATP. In short, it runs like this: as §1
For a further assay, the target named is human cyclin D1-CDK4 (Homo sapiens, UniProt P11802). Description: FlashPlate kinase assay, cyclin D1-CDK4, Rb substrate. The assay is classed as biochemical. The conditions noted are these: recombinant cyclin D1-CDK4, Rb phosphorylation, 1 μM ATP. In short, it runs like this:
as §1

Assay [1] relates to HCT116, a colorectal carcinoma cell line. The experiment in a line: Tetrazolium dye proliferation assay (MTT assay). The class given is cell-based. The conditions noted are these: Homo sapiens, HCT-116, HCT116 cells, inhibition of cell proliferation. How it is done:
Proliferation was evaluated by the tetrazolium dye assay according to the procedure of Denizot and Lang (Denizot, F. and Lang, R. J Immunol Methods 1986, 89, 271-277). The cell line used was HCT116, a colorectal carcinoma cell line obtained from the American Type Cell Culture Collection (ATCC; Rockville, Md.). The cells were grown in McCoy's 5A medium supplemented with 10% FCS and L-glutamine.
Cells were plated at the appropriate seeding density to give logarithmic growth over the course of the assay in a 96-well tissue culture plate. Plates were incubated overnight at 37° C. in a humidified incubator with 5% CO2. The next day, test compounds were serially diluted to four times the final concentration in the appropriate medium containing 1.2% DMSO. One-fourth final volume of each dilution was added in duplicate to the plates containing cells. The same volume of 1.2% DMSO in medium was added to a row of “control wells” such that the final concentration of DMSO in each well was 0.3%. Wells to which no cells were added served as the “blank.” Wells to which no inhibitor was added served as “no inhibitor control.” The plates were) returned to the incubator, and at set time points (determined by their growth curves) plates were analyzed as described below.
3-(4,5-dimethylthiazole-2-yl)-2,5-diphenyl-2H-tetrazolium bromide (thiazolyl blue; MTT; Sigma) was added to each well to yield a final concentration of 1 mg/ml. Plates were returned to the incubator for 2.5-3 hours at 37° C. The MTT-containing medium was removed and the resulting formazan metabolite was solubilized in 100% ethanol with shaking for 15 minutes at room temperature. Absorbance readings were taken in a microtiter plate reader (Dynatech and Molecular Devices plate readers were used interchangeably) at a wavelength of 570 nm with a 650 nm reference. Percent inhibition (% INH) is calculated by subtracting the absorbance of the blank well from all wells, then subtracting the ratio of the average absorbance of each test duplicate (SAVE) by the average of the controls (CAVE) from 1.00. The final number is then multiplied by 100 (% INH=(1.00−SAVE/CAVE)×100). The concentration at which 50% inhibition of cell proliferation is obtained (the IC50) is determined from the linear regression of a plot of the logarithm of the concentration versus percent inhibition.

Sequence of human cyclin B-CDK1 (P06493 whole entry): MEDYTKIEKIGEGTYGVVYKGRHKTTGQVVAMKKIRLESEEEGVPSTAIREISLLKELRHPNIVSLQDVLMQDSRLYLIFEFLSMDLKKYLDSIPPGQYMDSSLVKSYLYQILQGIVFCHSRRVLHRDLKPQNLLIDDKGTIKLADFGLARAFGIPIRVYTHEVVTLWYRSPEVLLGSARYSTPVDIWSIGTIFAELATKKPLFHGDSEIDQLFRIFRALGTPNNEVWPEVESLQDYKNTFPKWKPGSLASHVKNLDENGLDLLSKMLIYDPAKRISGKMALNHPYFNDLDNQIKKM
Sequence of human cyclin B-CDK1 (P14635 whole entry partner): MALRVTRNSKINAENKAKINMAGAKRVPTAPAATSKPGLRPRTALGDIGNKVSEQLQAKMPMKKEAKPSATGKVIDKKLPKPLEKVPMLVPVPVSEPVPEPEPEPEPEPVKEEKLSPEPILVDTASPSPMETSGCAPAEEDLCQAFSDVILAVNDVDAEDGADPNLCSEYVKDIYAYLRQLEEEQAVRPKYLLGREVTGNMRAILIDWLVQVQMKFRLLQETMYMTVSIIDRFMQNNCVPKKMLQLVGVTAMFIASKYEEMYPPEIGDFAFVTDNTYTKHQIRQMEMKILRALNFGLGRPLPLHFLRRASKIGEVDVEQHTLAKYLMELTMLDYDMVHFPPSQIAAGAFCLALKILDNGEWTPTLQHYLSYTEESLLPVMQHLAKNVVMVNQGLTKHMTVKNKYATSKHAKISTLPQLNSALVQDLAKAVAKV
Sequence of human cyclin D1-CDK4 (P11802 whole entry): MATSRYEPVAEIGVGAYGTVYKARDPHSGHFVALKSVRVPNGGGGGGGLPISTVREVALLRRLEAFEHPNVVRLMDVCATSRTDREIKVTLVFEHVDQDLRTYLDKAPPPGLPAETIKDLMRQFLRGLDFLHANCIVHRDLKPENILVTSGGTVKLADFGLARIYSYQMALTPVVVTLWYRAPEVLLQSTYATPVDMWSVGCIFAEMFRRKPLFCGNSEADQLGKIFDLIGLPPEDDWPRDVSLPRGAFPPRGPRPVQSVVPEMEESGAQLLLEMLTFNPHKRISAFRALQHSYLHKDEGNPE
Sequence of human cyclin D1-CDK4 (P24385 whole entry partner): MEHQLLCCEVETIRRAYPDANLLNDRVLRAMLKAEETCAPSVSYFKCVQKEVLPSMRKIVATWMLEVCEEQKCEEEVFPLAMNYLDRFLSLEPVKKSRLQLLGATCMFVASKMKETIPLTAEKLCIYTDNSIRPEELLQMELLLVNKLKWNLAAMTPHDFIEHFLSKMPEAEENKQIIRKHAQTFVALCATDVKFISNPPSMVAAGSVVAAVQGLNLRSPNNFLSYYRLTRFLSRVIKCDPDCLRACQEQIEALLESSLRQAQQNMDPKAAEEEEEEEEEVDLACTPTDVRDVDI

As for `CCc1cccc(C(=O)c2sc(Nc3ccc(OCC(C)(C)N(C)C)cc3)nc2N)c1` [Example 61, [4-Amino-2-[4-(2-dimethylamino-2-methyl-propoxy)-phenylamino]-thiazol-5-yl]-(3-ethyl-phenyl)-methanone], the 50% inhibitory concentration (IC50) (usually the concentration at which inhibition is half-maximal) on human cyclin E-CDK2 turned out to be 1.56 µM; on human cyclin B-CDK1 it was 1.21 µM; at human cyclin D1-CDK4, 0.046 µM; in assay [1], 0.954 µM.

As to `CCOc1cccc(C(=O)c2sc(Nc3ccc(OCCN4CCCC4)cc3)nc2N)c1` [Example 62, [4-Amino-2-[4-(2-pyrrolidin-1-yl-ethoxy)-phenylamino]-thiazol-5-yl]-(3-ethoxy-phenyl)-methanone], the half-inhibitory concentration (IC50) on human cyclin E-CDK2 amounted to 4.45 µM; at human cyclin B-CDK1, 1.81 µM; on human cyclin D1-CDK4 it was 0.033 µM; in assay [1] it was 1.3 µM.

Take `CCc1cccc(C(=O)c2sc(Nc3ccc(OC[C@@H](C)N(C)C)cc3)nc2N)c1` [Example 63, (R)-[4-Amino-2-[4-(2-dimethylamino-propoxy)-phenylamino]-thiazol-5-yl]-(3-ethyl-phenyl)-methanone]: the IC50 on human cyclin E-CDK2 stood at 1.9 µM; on human cyclin B-CDK1, 2.57 µM; on human cyclin D1-CDK4, 0.08 µM; in assay [1], 0.623 µM.

As for `CN(C)CCOc1ccc(Nc2nc(N)c(C(=O)c3cccc(Br)c3)s2)cc1` [Example 65, [4-Amino-2-[4-(2-dimethylamino-ethoxy)-phenylamino]-thiazol-5-yl]-(3-bromo-phenyl)-methanone], the IC50 on human cyclin E-CDK2 came to 1.69 µM; at human cyclin B-CDK1, 1.07 µM; on human cyclin D1-CDK4 it was 0.085 µM; in assay [1] it was 3.24 µM.

With `CCc1cccc(C(=O)c2sc(Nc3ccc(OC[C@@H](C)N4CCCC4)cc3)nc2N)c1` [Example 67, (R)-[4-Amino-2-[4-(2-pyrrolidin-1-yl-propoxy)-phenylamino]-thiazol-5-yl]-(3-ethyl-phenyl)-methanone], the concentration for half-maximal inhibition (IC50) was 1.48 µM at human cyclin E-CDK2, 2.76 µM on human cyclin B-CDK1, 0.07 µM on human cyclin D1-CDK4 and 0.846 µM in assay [1].

Regarding `C[C@H](COc1ccc(Nc2nc(N)c(C(=O)c3cccc(C4CC4)c3)s2)cc1)N1CCCC1` [Example 68, (R)-[4-Amino-2-[4-(2-pyrrolidin-1-yl-propoxy)-phenylamino]-thiazol-5-yl]-(3-cyclopropyl-phenyl)-methanone], the IC50 at human cyclin E-CDK2 was 4.54 µM; at human cyclin B-CDK1 it was 2.07 µM; at human cyclin D1-CDK4, 0.051 µM; in assay [1], 1.21 µM.

For `CN(C)CCOc1ccc(Nc2nc(N)c(C(=O)c3cccc(C4CC4)c3)s2)cc1` [Example 69, [4-Amino-2-[4-(2-dimethylamino-ethoxy)-phenylamino]-thiazol-5-yl]-(3-cyclopropyl-phenyl)-methanone], the 50% inhibitory concentration (IC50) on human cyclin E-CDK2 turned out to be 2.89 µM; on human cyclin B-CDK1 it was 1.78 µM; on human cyclin D1-CDK4, 0.04 µM; in assay [1] it was 1.05 µM.

In the case of `C[C@H](COc1ccc(Nc2nc(N)c(C(=O)c3cccc(C4CC4)c3)s2)cc1)N(C)C` [Example 70, (R)-[4-Amino-2-[4-(2-dimethylamino-propoxy)-phenylamino]-thiazol-5-yl]-(3-cyclopropyl-phenyl)-methanone], the IC50 came out at 3.14 µM on human cyclin E-CDK2, 2.96 µM on human cyclin B-CDK1, 0.038 µM on human cyclin D1-CDK4 and 1.93 µM in assay [1].

Take `CN(C)C(C)(C)COc1ccc(Nc2nc(N)c(C(=O)c3cccc(C4CC4)c3)s2)cc1` [Example 71, [4-Amino-2-[4-(2-dimethylamino-2-methyl-propoxy)-phenylamino]-thiazol-5-yl]-(3-cyclopropyl-phenyl)-methanone]: the concentration for half-maximal inhibition (IC50) at human cyclin E-CDK2 worked out at 2.11 µM; on human cyclin B-CDK1, 3.87 µM; at human cyclin D1-CDK4, 0.039 µM; in assay [1], 2.36 µM.

With `Nc1nc(Nc2ccc(OCCN3CCCC3)cc2)sc1C(=O)c1cccc(C2CC2)c1` [Example 72, [4-Amino-2-[4-(2-pyrrolidin-1-yl-ethoxy)-phenylamino]-thiazol-5-yl]-(3-cyclopropyl-phenyl)-methanone], the IC50 on human cyclin E-CDK2 is 1.18 µM; at human cyclin B-CDK1, 1.98 µM; on human cyclin D1-CDK4 it was 0.037 µM; in assay [1], 1.38 µM.
